Test results: patent US10738053B2, “Bicyclic compounds as dual ATX/CA inhibitors” (Hoffmann-La Roche Inc., priority 2015, dated 2020)

Tests used:
human ATX = human ATX (Homo sapiens (Human), UniProt Q13822); experiment: Human ATX enzyme inhibition assay (fluorescence quenching, MR121 substrate); format: biochemical; details: human His-tagged ATX 30 nM, MR121 substrate 1 μM
Procedure: Production of Human Full Length ATX, with and without His Tag
Autotaxin (ATX-ENPP2) cloning: cDNA was prepared from commercial human hematopoietic cells total RNA and used as template in overlapping PCR to generate a full length human ENPP2 ORF with or without a 3′-6× His tag. These full length inserts were cloned into the pcDNA3.1V5-His TOPO (Invitrogen) vector. The DNA sequences of several single clones were verified. The DNA from a correct full length clone was used to transfect Hek293 cells for verification of protein expression. The sequence of the encoded ENPP2 conforms to Swissprot entry Q13822, with or without the additional C-terminal 6× His tag.
ATX Fermentation: Recombinant protein was produced by large-scale transient transfection in 20 L controlled stirred tank bioreactors (Sartorius). During cell growth and transfection, temperature, stirrer speed, pH and dissolved oxygen concentration were maintained at 37° C., 120 rpm, 7.1 and 30% DO, respectively. FreeStyle 293-F cells (Invitrogen) were cultivated in suspension in FreeStyle 293 medium (Invitrogen) and transfected at ca. 1-1.5×10E6 cells/mL with above plasmid DNAs using X-tremeGENE Ro-1539 (commercial product, Roche Diagnostics) as complexing agent. Cells were fed a concentrated nutrient solution (J Immunol Methods 194 (1996), 19, 1-199 (page 193)) and induced by sodium butyrate (2 mM) at 72 h post-transfection and harvested at 96 h post-transfection. Expression was analyzed by Western Blot, enzymatic assay and/or analytical IMAC chromatography. After cooling the cell suspension to 4° C. in a flow-through heat exchanger, cell separation and sterile filtration of supernatant was performed by filtration through Zeta Plus 60M02 E16 (Cuno) and Sartopore 2 XLG (Sartorius) filter units. The supernatant was stored at 4° C. prior to purification.
ATX Purification: 20 liter of culture supernatant were conditioned for ultrafiltration by adding Brij 35 to a final concentration of 0.02% and by adjusting the pH to 7.0 using 1 M HCl. Then the supernatant was first microfiltred through a 0.2 µm Ultran-Pilot Open Channel PES filter (Whatman) and afterwards concentrated to 1 liter through an Ultran-Pilot Screen Channel PES filter with 30 kDa MWCO (Whatman). Prior to IMAC chromatography, NiSO4 was added to a final concentration of 1 mM. […] The column was washed stepwise with the same buffer containing 20 mM, 40 mM and 50 mM imidazole, respectively. The protein was subsequently eluted using a linear gradient to 0.5 M imidazole in 15 column volumes. ATX containing fractions were pooled and concentrated using an Amicon cell equipped with a 30 kDa PES filter membrane. […] Final yield of protein after purification was 5-10 mg ATX per liter of culture supernatant. The protein was stored at −80° C.
Human ATX Enzyme Inhibition Assay
Test compounds (10 mM stock in DMSO, 8 μL) were obtained in 384 well sample plates (Corning Costar #3655) and diluted with 8 μL DMSO. […] Then, 15 μL of 41.7 nM ATX solution was added (30 nM final concentration), mixed five times and then incubated for 15 minutes at 30° C. 10 μL of MR121 substrate solution was added (1 μM final concentration), mixed 30 times and then incubated for 15 minutes at 30° C.

[1] = biological target: Human carbonic anhydrase II (hCA-II) (Homo sapiens (Human), UniProt P00918); experiment: Human carbonic anhydrase-II inhibition assay (absorbance, 4-NPA substrate); format: biochemical; details: hCA II 8 nM, 4-NPA 2.5 mM, absorbance 340 nm; read-out: CA-II IC50
Procedure: Human Carbonic Anhydrase-II Inhibition Assay
Then 30 μL of 16 nM hCA II solution was added (8 nM final concentration), mixed five times. 30 μL of 4-NPA substrate solution was added (2.5 mM final concentration), mixed five times.

IC50 (human ATX) [nM] | IC50 [1] [nM] | Structure (SMILES)
7 | 38 | C[C@]12CN(C(=O)OCc3ccc(OC(F)(F)F)cc3)C[C@@H]1CN(C(=O)c1ccc(S(N)(=O)=O)cc1)C2 [Example 5.00, (−)-(3aS,6aS)-3a-methyl-5-(4-sulfamoylbenzoyl)-hexahydro-pyrrolo[3,4-c]pyrrole-2-carboxylic acid 4-trifluoromethoxy-benzyl ester]
6 | 95 | C[C@@]12CN(C(=O)OCc3ccc(OC(F)(F)F)cc3)C[C@H]1CN(C(=O)c1ccc(S(N)(=O)=O)cc1)C2 [Example 4.00, (+)-(3aR,6aR)-3a-Methyl-5-(4-sulfamoyl-benzoyl)-hexahydro-pyrrolo[3,4-c]pyrrole-2-carboxylic acid 4-trifluoromethoxy-benzyl ester]
8 | 6 | NS(=O)(=O)c1ccc(C(=O)N2C[C@@H]3CN(C(=O)c4cc(OCC5CCOCC5)nc(C5CC5)c4)C[C@@]3(F)C2)c(F)c1 (relative stereo) [Example 3.02, trans-4-[5-[2-cyclopropyl-6-(oxan-4-ylmethoxy)pyridine-4-carbonyl]-3a-fluoro-3,4,6,6a-tetrahydro-1H-pyrrolo[3,4-c]pyrrole-2-carbonyl]-3-fluorobenzenesulfonamide]
8 | 10 | NS(=O)(=O)c1ccc(C(=O)N2C[C@@H]3CN(C(=O)OCc4ccc(OC(F)(F)F)cc4)C[C@@]3(F)C2)cc1 (single isomer, unassigned) [Example 4.02, (−)-trans-5-(4-sulfamoyl-benzoyl)-3a-fluoro-hexahydro-pyrrolo[3,4-c]pyrrole-2-carboxylic acid 4-trifluoromethoxy-benzyl ester]
5 | 9 | NS(=O)(=O)c1ccc(C(=O)N2C[C@H]3CN(C(=O)/C=C/c4ccc(OC(F)(F)F)cc4)C[C@]3(F)C2)c(F)c1 (relative stereo) [Example 3.00, trans-4-[3a-Fluoro-2-[(E)-3-[4-(trifluoromethoxy)phenyl]prop-2-enoyl]-3,4,6,6a-tetrahydro-1H-pyrrolo[3,4-c]pyrrole-5-carbonyl]-3-fluorobenzenesulfonamide]
13 | 18 | CO[C@@]12CN(C(=O)OCc3ccc(OC(F)(F)F)cc3)C[C@H]1CN(C(=O)c1ccc(S(N)(=O)=O)cc1)C2 (single isomer, unassigned) [Example 4.01, (−)-trans-5-(4-sulfamoyl-benzoyl)-3a-methoxy-hexahydro-pyrrolo[3,4-c]pyrrole-2-carboxylic acid 4-trifluoromethoxy-benzyl ester]
13 | 20 | CO[C@@]12CN(C(=O)OCc3ncc(C(F)(F)F)cc3NC(=O)C(C)(C)C)C[C@H]1CN(C(=O)c1ccc(S(N)(=O)=O)cc1)C2 (single isomer, unassigned) [Example 5.03, (+)-trans-5-(4-sulfamoyl-benzoyl)-3a-methoxy-hexahydro-pyrrolo[3,4-c]pyrrole-2-carboxylic acid 3-(2,2-dimethyl-propionylamino)-5-trifluoromethyl-pyridin-2-ylmethyl ester]
4 | 15 | NS(=O)(=O)c1ccc(C(=O)N2C[C@@H]3CN(C(=O)OCc4ccc(OC(F)(F)F)cc4)C[C@@]3(F)C2)cc1 (single isomer, unassigned) [Example 5.02, (+)-trans-5-(4-sulfamoyl-benzoyl)-3a-fluoro-hexahydro-pyrrolo[3,4-c]pyrrole-2-carboxylic acid 4-trifluoromethoxy-benzyl ester]
6 | 27 | CO[C@@]12CN(C(=O)OCc3ccc(OC(F)(F)F)cc3)C[C@H]1CN(C(=O)c1ccc(S(N)(=O)=O)cc1)C2 (single isomer, unassigned) [Example 5.01, (+)-trans-5-(4-sulfamoyl-benzoyl)-3a-methoxy-hexahydro-pyrrolo[3,4-c]pyrrole-2-carboxylic acid 4-trifluoromethoxy-benzyl ester]
11 | 13 | CO[C@@]12CN(C(=O)OCc3ncc(C(F)(F)F)cc3NC(=O)C(C)(C)C)C[C@H]1CN(C(=O)c1ccc(S(N)(=O)=O)cc1)C2 (single isomer, unassigned) [Example 4.03, (−) trans-5-(4-sulfamoyl-benzoyl)-3a-methoxy-hexahydro-pyrrolo[3,4-c]pyrrole-2-carboxylic acid 3-(2,2-dimethyl-propionylamino)-5-trifluoromethyl-pyridin-2-ylmethyl ester]

Further lines, the compound ahead of its results:

Structure (SMILES) | IC50 (human ATX) [nM] | IC50 [1] [nM]
C[C@]12CN(C(=O)OCc3ccc(OC(F)(F)F)cc3)C[C@@H]1CN(C(=O)c1ccc(S(N)(=O)=O)cc1)C2 (racemic) [Example 1.06, trans-3a-methyl-5-(4-sulfamoyl-benzoyl)-hexahydro-pyrrolo[3,4-c]pyrrole-2-carboxylic acid 4-trifluoromethoxy-benzyl ester] | 6 | –
CO[C@]12CN(C(=O)OCc3ccc(OC(F)(F)F)cc3)C[C@@H]1CN(C(=O)c1ccc(S(N)(=O)=O)cc1)C2 (racemic) [Example 1.05, trans-5-(4-sulfamoyl-benzoyl)-3a-methoxy-hexahydro-pyrrolo[3,4-c]pyrrole-2-carboxylic acid 4-trifluoromethoxy-benzyl ester] | 20 | –
CO[C@]12CN(C(=O)OCc3ncc(C(F)(F)F)cc3NC(=O)C(C)(C)C)C[C@@H]1CN(C(=O)c1ccc(S(N)(=O)=O)cc1)C2 (racemic) [Example 1.03, trans-5-(4-sulfamoyl-benzoyl)-3a-methoxy-hexahydro-pyrrolo[3,4-c]pyrrole-2-carboxylic acid 3-(2,2-dimethyl-propionylamino)-5-trifluoromethyl-pyridin-2-ylmethyl ester] | 6 | –
NS(=O)(=O)c1ccc(C(=O)N2C[C@H]3CN(C(=O)OCc4ccc(OC(F)(F)F)cc4)C[C@]3(F)C2)cc1 (racemic) [Example 1.04, trans-5-(4-sulfamoyl-benzoyl)-3a-fluoro-hexahydro-pyrrolo[3,4-c]pyrrole-2-carboxylic acid 4-trifluoromethoxy-benzyl ester] | 3 | –
CO[C@]12CN(C(=O)CCc3ccc(OC(F)(F)F)cc3)C[C@@H]1CN(C(=O)c1ccc(S(N)(=O)=O)cn1)C2 (relative stereo) [Example 1.08, trans-6-[3a-methoxy-2-[3-[4-(trifluoromethoxy)phenyl]propanoyl]-3,4,6,6a-tetrahydro-1H-pyrrolo[3,4-c]pyrrole-5-carbonyl]pyridine-3-sulfonamide] | 17 | 18
CO[C@]12CN(C(=O)CCc3ccc(OC(F)(F)F)cc3)C[C@@H]1CN(C(=O)c1ccc(S(N)(=O)=O)cc1F)C2 (relative stereo) [Example 1.01, trans-4-[3a-methoxy-2-[3-[4-(trifluoromethoxy)phenyl]propanoyl]-3,4,6,6a-tetrahydro-1H-pyrrolo[3,4-c]pyrrole-5-carbonyl]-3-fluorobenzenesulfonamide] | 10 | 8
CO[C@@]12CN(C(=O)c3cc(OCC4CCOCC4)nc(C4CC4)c3)C[C@H]1CN(C(=O)c1ccc(S(N)(=O)=O)cn1)C2 (relative stereo) [Example 1.09, trans-6-[5-[2-cyclopropyl-6-(oxan-4-ylmethoxy)pyridine-4-carbonyl]-3a-methoxy-3,4,6,6a-tetrahydro-1H-pyrrolo[3,4-c]pyrrole-2-carbonyl]pyridine-3-sulfonamide] | 10 | 10
